{"source": "EPA's ToxValDB 9.5 (doi:10.2903/j.efsa.2016.4475)", "key": {"Mus musculus": {"system": "Mus musculus", "settings": "chronic; duration: 103 weeks; oral; diet; mortality"}, "Rattus norvegicus": {"system": "Rattus norvegicus", "settings": "oral"}, "Pontoscolex corethrurus": {"system": "Pontoscolex corethrurus", "settings": "acute; mortality"}, "Daphnia magna": {"system": "Daphnia magna", "settings": "acute; mortality"}, "[1]": {"settings": "chronic, duration: 103 weeks, diet, histopathology: neoplastic"}}}
{"compound": "CC(=O)O[C@@H]1C[C@H](C)CC[C@H]1C(C)C", "note": "(racemic) [dl-Menthyl acetate]", "values": [{"measurement": "NOAEL", "setting": "Mus musculus", "value": 600, "unit": "mg/kg-day"}, {"measurement": "NOAEL", "setting": "Rattus norvegicus; [1]", "value": 375, "unit": "mg/kg-day"}]}
{"compound": "CC(=O)OC1CCCCC1", "note": "[Cyclohexyl acetate]", "values": [{"measurement": "LC50", "setting": "Pontoscolex corethrurus", "value": 1150, "unit": "mg/kg"}]}
{"compound": "CC(=O)/C=C/C1C(C)=CCC(C)C1(C)C", "note": "(stereo not drawn) [alpha-Irone]", "values": [{"measurement": "LC50", "setting": "Daphnia magna", "value": 0.513, "unit": "mg/L"}]}
{"compound": "CC(=O)O[C@@H]1C[C@H]2CC[C@]1(C)C2(C)C", "note": "[Isobornyl acetate]", "values": [{"measurement": "NOAEL", "setting": "Rattus norvegicus; subchronic, duration: 13 weeks, gavage, M/F, organ weight", "value": 15, "unit": "mg/kg-day"}]}
{"compound": "CC(=O)/C=C/C1=C(C)CCCC1(C)C", "note": "[beta-Ionone]", "values": [{"measurement": "NOAEL", "setting": "Rattus norvegicus; subchronic, duration: 13 weeks, diet, M/F, body weight", "value": 10, "unit": "mg/kg-day"}]}
{"compound": "CC1CCC(C(C)C)C(O)C1", "note": "(stereo unspecified) [Menthol]", "values": [{"measurement": "NOAEL", "setting": "Mus musculus", "value": 600, "unit": "mg/kg-day"}, {"measurement": "NOAEL", "setting": "Rattus norvegicus; [1]", "value": 375, "unit": "mg/kg-day"}]}
{"compound": "CCCCCC1C(=O)CCC1CC(=O)OC", "note": "(stereo unspecified) [Methyl dihydrojasmonate]", "values": [{"measurement": "LC50", "setting": "Pontoscolex corethrurus", "value": 1430, "unit": "mg/kg"}, {"measurement": "NOAEL", "setting": "Rattus norvegicus; subchronic, duration: 13 weeks, diet, M/F, Sprague-Dawley, no effects", "value": 100, "unit": "mg/kg-day"}]}
{"compound": "CC(=O)/C=C/C1C(C)=CCCC1(C)C", "note": "(stereo not drawn) [alpha-Ionone]", "values": [{"measurement": "NOAEL", "setting": "Rattus norvegicus; subchronic, duration: 13 weeks, diet, M/F, food consumption", "value": 10, "unit": "mg/kg-day"}]}
